US11458132B2, “Quinolin-2(1H)-one inhibitors of Late SV40 Factor” (TRUSTEES OF BOSTON UNIVERSITY, priority 2020, dated 2022)

How the values were obtained:
[1] = tested on: MC38 cells; experiment: Syngeneic MC38 xenograft model in C57BL/6 mice; format: in vivo
From the text: Syngeneic and allogeneic xenograft models: We used 8-12 weeks-old athymic female mice for the allogeneic xenograft model and C57BL/6 mice for a syngeneic xenograft model, as described previously^26,27. All the mice were obtained from The Jackson Laboratory and housed at Boston University Medical Center based on the approval from the Institutional Animal Care and Use Committee. Each mouse was implanted subcutaneously on the dorsal surface and was monitored for tumor growth as measured with a VWR Digital Caliper. The tumor volume was calculated twice a week using the equation: length×width×height.
The mice were randomly separated into two groups once tumor volumes reached 100 mm^3. The FQI2-34 was suspended in a mixture of ethanol and DMSO. The mixture was agitated until the compound had completely dissolved. This solution was further diluted in 20% PEG 400 and water to give a final concentration of 2 mg/ml. FQI2-34 or vehicle was injected intraperitoneally daily at 5 mg/kg for 5 days, followed by a break for 2 days. After 21 days, both groups of mice were sacrificed, and the tumors were harvested.
Cell culture and other reagents: HT-29 cells were obtained from ATCC and grown in the Roswell Park Memorial Institute (RPMI) medium supplemented with 10% FBS and penicillin and streptomycin. Cells were injected with the growth-factor poor Matrigel (Millipore, catalogue number DLW354263) using a 23-gauge needle for a total volume of 200 microliters. The MC38 cell line was obtained from ATCC and grown in RPMI medium supplemented with 10% FBS and penicillin and streptomycin.
IHC was performed on the paraffin-embedded tumors as described previously^26-28. The manufacturer's protocol was used along with reagents from the Abcam Mouse and Rabbit Specific HRP/DAB IHC Detection Kit—Micro-polymer (ab236466). Primary antibodies and their dilutions used to detect the respective proteins were: Axin2 (Abcam, #ab32197, 1:100), β-catenin (BD Biosciences, #610154, 1:100), LSF (BD Biosciences, #610818, 1:100), SOX9 (Abcam, #ab185230, 1:100), Ki-67 (Cell Signaling, #8D5, 1:100).
All images and quantification were performed using the Nikon Eclipse TE2000 Inverted Microscope with the color camera at the Boston University School of Medicine (BUSM) Imaging Core. Random high-power field (hpf) images of every tumor sample were obtained. For quantification the signal was converted to grayscale, and the number and intensity of pixels were analyzed as integrated density by using Fiji. The integrated density of all the images was normalized to its area. The images were processed in ImageJ (National Institutes of Health, Bethesda, Md.) to quantitate the expression of SOX-9, AXIN-2, and LSF. Regions of interest were drawn and the expression was measured using integrated density normalized to the surface area. The average normalized integrated image densities from multiple hpfs were used to perform the correlational analysis between expression levels of pairs of proteins.

[2] = Plasma protein binding (PPB), mouse; format: in vitro ADME
[3] = tested on: FH-B cells; experiment: Cell spreading area / cell compaction by microscopy; format: cell-based, human
Protocol: (§1) Cells were washed as before, treated with Phalloidin-iFluor 488 Reagent (abcam, ab176753) for 1 hour in 1-5% BSA in PBS, followed by Hoechst 33342 (Thermo Fisher Scientific, H3570) for 5 minutes. Mounting medium (Fisher Scientific, P10144) and cover slips were applied onto dried cells. Individually discernible cells were imaged on an Olympus Fluoview 10i. Using ImageJ, the phalloidin channel was thresholded and area and circularity values were measured and integrated into swarmplots using Python's seaborn library.
For time lapse microscopy, FH-B cells in high μ-dishes were incubated with CellBrite™ Steady Membrane stain (Biotium, 30108-T) for 30-40 minutes in the environmental chamber of a Nikon C2 Si microscope at 37° C. and 5% CO2. Treatments were added to the cells through a syringe to reach final concentrations of 4 μM FQI1 or 0.01% DMSO. Immediately thereafter, a time-lapse series was acquired by imaging every 30 seconds for 30 minutes at 20× magnification.

[4] = tested on: FH-B cells; experiment: Cell motility tracking; format: cell-based, human; conditions: thymidine block, 4 μM FQI1
Protocol: Cell motility tracking: After overnight seeding in high μ-dishes, cells were synchronized by incubating in 2 mM thymidine for 18-20 hours. Thereafter, cells were treated with 4 μM FQI1 or vehicle (0.01% DMSO) for 1 hour, followed by a 10-min incubation in NucSpot® Live 650 dye (Biotium, 40082) following the manufacturer's instructions. Subsequently, cells were imaged every 2 minutes for 2 hours in an environmental chamber of a Nikon C2 Si microscope at 37° C. and 5% CO2 at 20× magnification. Cells that underwent mitosis during the 2-hour period were excluded from the analysis. Using ImageJ, individual nuclei were monitored using the Manual Tracking tool and the distances between starting and end points were integrated into swarmplots using Python's seaborn library.

[5] = tested on: RPE cells; experiment: Analysis of microtubule features by immunofluorescence; format: cell-based
Protocol: Analysis of microtubule features by immunofluorescence: Because Y-27632 diminishes FQI1-induced cell compaction (FIGS. 10C and 10D) without affecting microtubule levels (FIGS. 9A and 9B), cells were pretreated with Y-27632 in order to maintain overall cellular shape, facilitating capture of structural or positional impact of FQI1 on microtubules. In addition, only cells with cell spreading areas larger than 1000 μm^2 were considered. Cells were seeded overnight in high n-dishes, treated as indicated in the figure legends, fixed with formaldehyde as described above, blocked in 5% BSA in PBS and stained overnight at 4° C. with anti-γ-tubulin (1:500, Abcam, ab11316) and anti-α-tubulin (1:500, Fisher Scientific, 62204). Samples were then incubated in goat anti-rabbit Cy5 (1:1000, Invitrogen, A10523), goat anti-mouse Alexa Fluor 546 (1:1000, Thermo Fisher Scientific, A11003), and Phalloidin-iFluor 488 Reagent. Hoechst 33342 and mounting medium were applied, before acquiring Z stack images at 60× magnification on an Olympus Fluoview 10i microscope.
Using ImageJ, binary Z projections of Phalloidin and Hoechst channel stacks were merged with Z projections with average intensity of the α-tubulin channels. The Phalloidin channel was used as the region of interest for measurement of “integrated density” of the total α-tubulin intensity, which was plotted into swarmplots.
To assess distribution of visible microtubule ends, the Hoechst, γ-tubulin, and α-tubulin stacks were converted into Z projections with maximum intensity. The Hoechst and γ-tubulin Z projections were thresholded and all channels were merged. A line was generated between the γ-tubulin signal and the center of the nucleus to identify the axis of cell movement; a line perpendicular to the first line and running through the center point of the nucleus divided the cell into posterior and anterior portions. Visible microtubule ends were counted using the Cell Counter plugin, excluding unattached microtubule fragments.

[6] = tested on: RPE cells; experiment: Cell spreading area and circularity by microscopy; format: cell-based
Protocol: as §1

[7] = xenografts, immunohistochemistry

| SMILES | tumor volumes, lower than controls ([1]; day 14 and day 21) | CRC mass on H&E stain ([1]; xenografts) | Ki-67 levels [1, 7] | reduction in AXIN2 expression levels [1, 7] | reduction in SOX9 expression levels [1, 7] | reduction in number of cells with nuclear β-catenin [1, 7] | fraction unbound [2] | decrease in cell spreading ([3]; 200 nM FQI2-34, 30 minutes, vs vehicle) | fold lower concentration than the effective concentrations for FQI1 (cell compaction) ([3]; 200 nM FQI2-34 vs 4 μM FQI1) | effect of FQI1 on cell spreading area after taxol pretreatment ([3]; 1 μM taxol 30 minutes, then 4 μM FQI1) | reduction in cell spreading area ([3]; 4 μM FQI1, 30-60 minutes, vs vehicle) | reduction in cell spreading area ([3]; Y-27632 pretreatment 30 minutes, then 4 μM FQI1 30 minutes) | decrease in median cell spreading area ([3]; vehicle pretreatment 30 minutes, then 4 μM FQI1 10 or 30 minutes) | reduction in cell spreading area ([3]; vehicle pretreatment (control group of Y-27632 experiment), 4 μM FQI1 30 minutes) | cell displacement over a 2-hour period [4] | front-rear pattern of visible microtubule ends ([5]; 4 μM FQI1) | overall α-tubulin intensity ([5]; 4 μM FQI1, 10 minutes, Y-27632 pretreated) | increase in the number of individually discernible microtubule ends ([5]; 4 μM FQI1, 10 minutes, vs vehicle) | cell spreading area ([6]; 4 μM FQI1, 1 hour) | circularity ([6]; 4 μM FQI1 or 1 μM nocodazole, 1 hour) |
| --- | --- | --- | --- | --- | --- | --- | --- | --- | --- | --- | --- | --- | --- | --- | --- | --- | --- | --- | --- | --- |
| CCOc1cc(N(C)C)ccc1-c1cc(=O)[nH]c2cc3c(cc12)OCO3 [FQI2-34, 8-(4-(dimethylamino)-2-ethoxyphenyl)-[1,3]dioxolo[4,5-g]quinolin-6(5H)-one] | ~2 fold | substantial reduction in CRC mass | suppressed | ~2 fold | ~2 fold | 2.3 fold | 0.07 | 2.1 fold | 20 fold |  |  |  |  |  |  |  |  |  |  |  |
| CCOc1ccccc1C1CC(=O)Nc2cc3c(cc21)OCO3 (centres unmarked) [FQI1, 8-(2-ethoxyphenyl)-7,8-dihydro-[1,3]dioxolo[4,5-g]quinolin-6(5H)-one] |  |  |  |  |  |  |  |  |  | no detectable effect | 1.7 fold | 1.2 fold | 1.5 fold | 1.6 fold | significantly smaller range of motion | shifted to a more anterior distribution | significant decrease in overall α-tubulin intensity | 2.5 fold | did not respond to FQI1 with significant change in cell spreading area | significantly more circular in shape |
